SMILES	melting point
[N-]=[N+]=NCCCC(=O)N1CCc2c(OC(CO)CO)ccc([N+](=O)[O-])c21	78 to 79 °C
CC(C)(C)c1ncncc1C(=O)c1ccc(Cl)cc1	75 to 77 °C
CNc1ccccc1CNC(=O)C1Cc2ccccc2N1S(=O)(=O)c1ccc(-c2cccc(C(F)(F)F)c2)cc1 (stereo unspecified)	86 °C
Ic1ccc(N2CCCC2)cc1	99.7 to 99.8 °C
Nc1ccc(CCC(=O)Nc2cnc3ccccc3c2)cc1[N+](=O)[O-]	220 °C
COC(=O)CC(O)C(O)CC(=O)OC (stereo unspecified)	80 to 81 °C
[N-]=[N+]=C(S(=O)(=O)C1CCCCC1)S(=O)(=O)C1CCCCC1	130 to 131 °C
Cc1cccc(NC(=O)NC2C(=O)N(C)c3ccccc3N(C34CC5CC(CC(C5)C3)C4)C2=O)c1 (stereo unspecified)	245 to 247 °C
CCN(CCCC1CCN(CC(=O)N2c3ccccc3C(=O)Nc3cccnc32)CC1)C(=O)C(C)(C)CC	136 to 138 °C
Cc1ccc(S(=O)(=O)OCC2COc3ccc(N)c(N)c3O2)cc1 (stereo unspecified)	178 to 180 °C
O=C(O)Cn1cccc(NS(=O)(=O)Cc2ccccc2)c1=O	186 to 187 °C
CC(C)(C)OC(=O)NC1CCC(C(=O)N2CCC(c3[nH]nc4c3C(=O)c3c(NC(=O)NN5CCOCC5)cccc3-4)CC2)CC1 (stereo unspecified)	178 to 180 °C
CN1C(=O)C(C(C)(C)C)NNC1=S (stereo unspecified)	214 °C
N#CC(C(N)=S)=C(N)N1CCCC1	164 °C
NC(=O)c1ncn2c1[C@@H]1CCCN1C(=O)c1c-2ccc(F)c1F	221 to 224 °C
O=c1c2c[nH]c3ccccc3c-2nn1-c1ccc(O)cc1	294 to 296 °C
CC(C#N)(C#N)Cc1ccc(Cl)cc1	91.1 °C
CC(=O)N(CCCCN1CCN(c2csc3cc(F)ccc23)CC1)C(=O)C(C)C	98 to 99 °C
O=C(NCC1(c2ccccc2)CCCCC1)Nc1ccc(F)cc1F	163 to 165 °C

SMILES	melting point
CC(C)n1nc(-c2c(NCc3ccncc3)nc(N)nc2-c2ccccc2)ccc1=O	222 °C
O=C(NCCCCOc1ccc(-c2ccc(=O)[nH]n2)cc1)c1cccnc1	155 to 157 °C
CC(C)(C)OC(=O)NCCn1c(=S)[nH][nH]c(=O)c1=O	160 °C
O=Cc1ccc2c(ccc3cc4ccccc4cc32)c1	144 to 145 °C
Clc1cc2c3c(c1)C(c1ccccc1)Nc1ccccc1N3CC2 (stereo unspecified)	192 to 194 °C
CNn1c(SC)nnc(-c2ccccc2)c1=O	119 to 120 °C
CCOC(=O)C1=C(C)NC(CN(C)C)=C(C(=O)OCC)C1c1ccccc1Br (stereo unspecified)	142 to 143 °C
Cc1c(-c2nc(-c3c(F)cccc3Cl)nn2C)csc1Br	133 to 134 °C
COc1ccc(C(O)(c2ccc(OC)cc2)[C@@H](N)C2CCCCC2)cc1	146 to 147 °C
C#Cc1cc2c(cc1Cl)C=C(C(=O)O)C(C(F)(F)F)O2 (stereo unspecified)	> 300 °C
Cc1ccc(CCO)c(NCc2ccc3nc(NCCCN4CCOCC4)n(Cc4ncccc4O)c3c2)c1	192 °C
Cc1c[nH]c(=O)n(CCCCl)c1=O	117 to 121 °C
CC(=O)Nc1nc(/C=C/C(=O)N2CCN(C(=O)c3cc(C(F)(F)F)cc(C(F)(F)F)c3)[C@H](Cc3c[nH]c4ccccc34)C2)cs1	167 to 172 °C
COc1cc(OC)cc(S(=O)(=O)c2ccc(N)cc2)c1	128 to 130 °C
COC(=O)C(=NO)c1nc2cc(Cl)ccc2oc1=O	176 to 177 °C
CC1(C)Oc2cccc(S(N)(=O)=O)c2O1	100 to 112 °C
CC1Oc2ccc(CCl)cc2NC1=O (stereo unspecified)	162 to 169 °C
CC(C)(C=NO)n1ccnc1	117 to 120 °C
CCOC(=O)/C=C/c1ccc(OCCOC)cc1Oc1ncc(Cl)cc1Cl	70.7 to 71.3 °C

SMILES	melting point
COc1cccc(Cc2cc(Br)ccc2O)c1	97 to 102 °C
O=C(O)c1ccccc1CCCCc1ccccc1	82 to 84 °C
COc1ccc(-c2cc(-c3ccccc3)[nH]c2C(=O)NCc2ccc(C(=O)Nc3ccccc3S)cc2)cc1	134 to 135 °C
CC(C)NC(=O)N1CCc2[nH]cnc2C1c1ccccc1 (stereo unspecified)	245 °C
COc1cc(C(=O)N2CCC(CCN3CCC(C(=O)c4nc5ccccc5[nH]4)CC3)(c3ccccc3)C2)cc(OC)c1OC (stereo unspecified)	108 to 111 °C
CC(=O)Nc1ccc(/C=C\COCCCCCCNCC(O)c2ccc(O)c(CO)c2)cc1 (stereo unspecified)	103 to 108 °C
N=C(NO)c1ccc(-c2cccc(-c3nc4ccc(C(=N)NO)cc4[nH]3)n2)cc1	> 290 °C
COC(=S)c1cccc2nc(C)n(Cc3ccc(-c4ccccc4-c4nc(=O)o[nH]4)cc3)c12	231 to 232 °C
CCOc1cc(-c2cc(C(F)(F)F)n3ncc(C(=O)Nc4nc(C)c(S(=O)(=O)NC(C)(C)CO)s4)c3n2)ccc1C(F)(F)F	276 °C
CN(C)CCOC(=O)c1ccc(CCN2CC=C(c3c[nH]c(-c4ccc(F)cc4)c3-c3ccncc3)CC2)cc1	178 to 181 °C
CN(C)S(=O)(=O)c1ccc2c(c1)C(=O)c1cc(Br)ccc1CC2	142 to 145 °C
COC(=O)c1ccn2ccnc2c1	143 °C
COc1nc(C(F)(F)F)cc(=O)n1-c1cc(OC(C)=O)c(Cl)cc1F	110 to 112 °C
CC(=O)CN1CCc2c(c(=O)oc3cc(C(C)C)ccc23)C1	76 to 79 °C
CCCc1cc2c(c3ccc(OC)cc13)OCc1cc(OC)ccc1-2	88 to 90 °C
O=C(Nc1ccc(Cl)cc1)NC(c1ccccc1)C(O)c1ccccc1 (stereo unspecified)	198 °C
COc1ccc(CN2CC=C(/C=C/c3ccc(C#N)cc3)CC2)cc1	120 to 121 °C
CC(C)(C)OC(=O)N1CCC(c2ccc([N+](=O)[O-])cc2)CC1	60 to 62 °C

From a melting point compilation (Tetko et al.; mined from patent text by program, amines drawn as free bases though some values may be those of a salt)
